Measurements from patent US20040106540A1, “Method of treating cancer” (priority 2003, published 2004).

Tests used:
Type in all cases: biochemical
PKA catalytic subunit = molecular target: T1, PKA catalytic subunit (Bos taurus, UniProt P00517); experiment: PKA assay (counter screen), Kemptide phosphorylation; details: read-out: Counter screens IC50 (μM) PKA
T1 construct: purchased UBI (Upstate Biotechnology) 14-114
Method: Each individual PKA assay consists of the following components:
1) 10 μl 5× PKA assay buffer (200 mM Tris pH7.5, 100 mM MgCl2, 5 mM 2-mercaptoethanol, 0.5 mM EDTA)
2) 10 μl of a 50 μM stock of Kemptide (Sigma) diluted into water
3) 10 μl ^33P-ATP (prepared by diluting 1.0 μl ^33P-ATP [10 mCi/ml] into 200 μl of a 50 μM stock of unlabeled ATP)
4) 10 μl appropriate solvent control dilution or inhibitor dilution
Assays were assembled in 96 deep-well assay plates. Components #3 and #4 were premixed and in a separate tube, a mixture containing equal volumes of components #1, #2, and #5 was prepared. The assay reaction was initiated by adding 30 μl of the components #1, #2, and #5 mixture to wells containing ^33P-ATP and inhibitor. The liquid in the assay wells was mixed and the assay reactions incubated for 20 minutes at room temperature. The reactions were stopped by adding 50 μl 100 mM EDTA and 100 mM sodium pyrophosphate and mixing.
The enzyme reaction product (phosphorylated Kemptide) was quantitated using p81 phosphocellulose 96 well filter plates (Millipore). Each well of a p81 filter plate was fill with 75 mM phosphoric acid. The wells were aspirated and 170 μl of 75 mM phosphoric acid was added to each well. […] The peptide was trapped on filter following the application of a vacuum. The filters were washed 5× by filling wells with 75 mM phosphoric acid followed by aspiration. After the final wash, the filters were allowed to air dry. 30 μl scintillation fluid was added to each well and the filters counted on a TopCount (Packard).

delta PH-Akt1 = molecular target: T2, delta PH-Akt1 (Homo sapiens, UniProt P31749); experiment: Akt kinase assay, phosphorylation of GSK3-derived peptide (PH domain deleted mutant); details: GSK3 peptide substrate; Akt1 lacking PH domain; read-out: GSK3 Peptide Substrate IC50 (μM) Akt-1 delta PH
T2 construct: PCR deletion mutagenesis was done using the full length Akt1 gene in the pS2neo vector as template; middle T tag (EYMPME) (N); biotin tag (from pS2neo vector); made in house; host or cells: Drosophila S2 cells
Text: For the expression of a pleckstrin homology domain (PH ) deleted (Δ aa 4-129, which includes deletion of a portion of the Akt1 hinge region) version of Akt1, PCR deletion mutagenesis was done using the full length Akt1 gene in the pS2neo vector as template. […] The final PCR product was digested with KpnI and SmaI and ligated into the pS2neo full length Akt1 KpnI/Sma I cut vector, effectively replacing the 5′ end of the clone with the deleted version.
(§1) The ^33P-labeled biotinylated product can be captured and detected using Streptavidin coated Flashplates (NEN LifeSciences) or Streptavidin Membrane Filter Plates (Promega).
(§2) GSK3α (S21) Peptide #3928, biotin-[…] PG (SEQ.ID.NO.: 15), FW=1517.8 (obtained from Macromolecular Resources) for Streptavidin Flashplate or Streptavidin Filter Plate detection.
(§3) GSK3α (S21) Peptide #G80613, […] (SEQ.ID.NO.: 16), FW=1547.8 (obtained from Research Genetics) for Phosphocellulose filter plate detection.
(§4) The reactions were then incubated at room temperature for 45 minutes.
(§5) 200 μl of stopped reaction was transferred to a Streptavidin Flashplate® PLUS (NEN Life Sciences, catalog no. SMP103). The plate was incubated for ≧10 minutes at room temperature on a plate shaker. The contents of each well was aspirated, and the wells rinsed 2 times with 200 μl TBS per well. The wells were then washed 3 times for 5 minutes with 200 μl TBS per well with the plates incubated at room temperature on a platform shaker during wash steps.
(§6) The plates were covered with sealing tape and counted using the Packard TopCount with the appropriate settings for counting [^33P] in Flashplates.
(§7) The enzymatic reactions as described in Step I of the Streptavidin Flash Plate Assay above were performed.
(§8) The reaction was stopped by adding 20 μl of 7.5M Guanidine Hydrochloride.
(§9) The plate was then washed using a vacuum manifold as follows: 1) 4×200 μl/well of 2M NaCl; 2) 6×200 μl/well of 2M NaCl with 1% H3PO4; 3)2×200 μl/well of diH20; and 4)2×100 μl/well of 95% Ethanol. The membranes were then allowed to air dry completely before adding scintillant.
(§10) The bottom of the plate was sealed with white backing tape, 30 μl/well of Microscint 20 (Packard Instruments, catalog no. 6013621) was added. The top of the plate was sealed with clear sealing tape, and the plate then counted using the Packard TopCount with the appropriate settings for [^33P] with liquid scintillant.
(§11) The enzymatic reactions were performed as described in Step 1 of the Streptavidin Flash Plate Assay (above) utilizing […] (SEQ.ID. NO.: 16) as the substrate in place of biotin-[…].
(§12) The reaction was stopped by adding 20 μl of 0.75% H3PO4.
(§13) The bottom of the plate was sealed with white backing tape, then 30 μl/well of Microscint 20 was added. The top of the plate was sealed with clear sealing tape, and the plate counted using the Packard TopCount with the appropriate settings for [^33P] and liquid scintillant.

active human Akt1 = molecular target: T3, active human Akt1 (Homo sapiens, UniProt P31749); experiment: Akt kinase assay, phosphorylation of GSK3-derived peptide; details: GSK3 peptide substrate; read-out: GSK3 Peptide Substrate IC50 (μM) Akt-1
T3 construct: purchased Upstate Biotechnology 14-276
Text: as §1, §2, §3, §4, §5, §6, §7, §8, §9, §10, §11, §12, §13

Akt2 = molecular target: T4, Akt2 (Homo sapiens, UniProt P31751); experiment: as above; details: GSK3 peptide substrate
T4 construct: a middle T tag was added to the 5′ end of the full length Akt2; middle T tag (EYMPME) (N); biotin tag (from pS2neo vector); made in house; host or cells: Drosophila S2 cells
Text: as §1, §2, §3, §4, §5, §6, §7, §8, §9, §10, §11, §12, §13

Akt3 = molecular target: T5, Akt3 (Homo sapiens, UniProt Q9Y243); experiment: as above; details: GSK3 peptide substrate
T5 construct: a middle T tag was added to the 5′ end of the full length Akt3 clone; middle T tag (EYMPME) (N); biotin tag (from pS2neo vector); made in house; host or cells: Drosophila S2 cells
Method: as §1, §4, §5, §6, §7, §8, §9
The top of the plate was sealed with clear sealing tape, and the plate then counted using the Packard TopCount with the appropriate settings for [^33P] with liquid scintillant. […]

PKC (mix of isoforms) = experiment: PKC assay (counter screen), myelin basic protein phosphorylation; details: read-out: Counter screens IC50 (μM) PKC
Method: Each PKC assay consists of the following components:
1) 5 μl 10×PKC co-activation buffer (2.5 mM EGTA, 4 mM CaCl2)
2) 10 μl 5×PKC activation buffer (1.6 mg/ml phosphatidylserine, 0.16 mg/ml diacylglycerol, 100 mM Tris pH 7.5, 50 mM MgCl, 5 mM 2-mercaptoethanol)
3) 5 μl ^33P-ATP (prepared by diluting 1.0 μl ^33P-ATP [10 mCi/nil] into 100 μl of a 100 μM stock of unlabeled ATP)
4) 10 μl of a 350 μg/ml stock of myelin basic protein (MBP, UBI) diluted in water
5) 10 μl appropriate solvent control or inhibitor dilution
Final assay concentrations were as follows: 0.25 mM EGTA, 0.4 mM CaCl, 20 mM Tris pH 7.5, 10 mM MgCl, 1 mM 2-mercaptoethanol, 0.32 mg/ml phosphatidylserine, 0.032 mg/mil diacylglycerol, 10 μM 33P-ATP, 70 μg/ml MBP, 10 ng/ml PKC, 0.1 mg/ml BSA.
Assays are performed using 96 deep well assay plates. In each assay well 10 μl of solvent control or appropriate inhibitor dilution with 5 μl ^33P-ATP (components #5 and #3) were premixed. […] The liquid in the assay wells was thoroughly mixed and the assay reactions incubated for 20 minutes at room temperature. The reactions were stopped by adding 100 mM EDTA (50 μl) and 100 mM sodium pyrophosphate (50 μl) and mixing. Phosphorylated MBP was collected on PVDF membranes in 96 well filter plates and quantitated by scintillation counting.

T4 sequence (P31751 whole entry): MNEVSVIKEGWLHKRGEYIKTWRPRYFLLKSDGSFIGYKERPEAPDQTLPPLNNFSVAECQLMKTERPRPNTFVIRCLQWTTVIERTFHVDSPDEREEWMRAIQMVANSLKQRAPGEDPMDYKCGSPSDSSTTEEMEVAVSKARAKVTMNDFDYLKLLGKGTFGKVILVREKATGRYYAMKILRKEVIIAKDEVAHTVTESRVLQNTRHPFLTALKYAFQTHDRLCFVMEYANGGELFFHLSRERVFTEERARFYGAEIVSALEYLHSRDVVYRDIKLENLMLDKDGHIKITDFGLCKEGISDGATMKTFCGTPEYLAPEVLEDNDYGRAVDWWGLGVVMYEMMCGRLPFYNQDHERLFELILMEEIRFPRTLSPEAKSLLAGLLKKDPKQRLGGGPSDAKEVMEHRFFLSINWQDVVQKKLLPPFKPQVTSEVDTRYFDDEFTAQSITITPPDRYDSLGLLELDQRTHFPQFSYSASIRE
T2 sequence (P31749 with tags, fused parts or gaps): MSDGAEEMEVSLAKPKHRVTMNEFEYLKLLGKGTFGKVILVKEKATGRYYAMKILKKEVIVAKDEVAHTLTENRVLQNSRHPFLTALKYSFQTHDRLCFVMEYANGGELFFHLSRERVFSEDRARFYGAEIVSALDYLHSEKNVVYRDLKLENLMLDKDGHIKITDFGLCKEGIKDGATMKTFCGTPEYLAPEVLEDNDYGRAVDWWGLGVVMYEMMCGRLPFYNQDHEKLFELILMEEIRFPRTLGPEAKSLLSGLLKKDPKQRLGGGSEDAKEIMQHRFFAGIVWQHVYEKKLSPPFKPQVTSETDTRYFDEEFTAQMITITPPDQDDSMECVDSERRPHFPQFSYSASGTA
T3 sequence (P31749 whole entry): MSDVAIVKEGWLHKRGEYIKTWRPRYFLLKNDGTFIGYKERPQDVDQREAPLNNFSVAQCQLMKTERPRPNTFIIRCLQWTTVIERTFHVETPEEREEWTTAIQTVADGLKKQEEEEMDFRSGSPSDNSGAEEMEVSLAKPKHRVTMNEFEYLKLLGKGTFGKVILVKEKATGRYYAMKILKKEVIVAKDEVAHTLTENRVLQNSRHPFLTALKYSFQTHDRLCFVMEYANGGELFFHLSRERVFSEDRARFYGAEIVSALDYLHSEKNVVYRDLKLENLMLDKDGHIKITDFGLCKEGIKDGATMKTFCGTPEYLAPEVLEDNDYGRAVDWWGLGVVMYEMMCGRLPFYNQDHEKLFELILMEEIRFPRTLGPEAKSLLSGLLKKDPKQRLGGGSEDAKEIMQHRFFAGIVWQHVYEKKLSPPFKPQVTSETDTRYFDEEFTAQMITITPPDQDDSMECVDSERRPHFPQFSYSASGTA
T5 sequence (Q9Y243 whole entry): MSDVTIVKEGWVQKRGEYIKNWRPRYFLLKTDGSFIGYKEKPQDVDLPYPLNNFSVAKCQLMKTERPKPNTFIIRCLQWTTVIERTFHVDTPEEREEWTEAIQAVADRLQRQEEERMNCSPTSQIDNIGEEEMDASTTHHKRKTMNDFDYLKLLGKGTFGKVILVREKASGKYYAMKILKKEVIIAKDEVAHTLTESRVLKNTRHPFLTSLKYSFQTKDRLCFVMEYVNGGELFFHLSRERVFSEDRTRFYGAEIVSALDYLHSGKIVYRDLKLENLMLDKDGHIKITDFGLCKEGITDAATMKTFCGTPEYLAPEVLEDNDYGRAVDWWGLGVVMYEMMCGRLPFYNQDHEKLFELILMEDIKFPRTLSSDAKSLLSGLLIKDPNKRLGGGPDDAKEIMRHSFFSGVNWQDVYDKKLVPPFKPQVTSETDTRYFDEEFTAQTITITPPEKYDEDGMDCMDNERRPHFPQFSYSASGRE

Row | Compound | IC50 (PKA catalytic subunit) [µM] | IC50 (delta PH-Akt1) [µM] | IC50 (active human Akt1) [µM] | IC50 (Akt2) [µM] | IC50 (Akt3) [µM] | IC50 (PKC (mix of isoforms)) [µM]
1 | 6-(2-Hydroxybutyl)oxy-3,7-diphenyl-[1,2,4]triazolo[4,3-b]pyridazine [Compound 9] | > 40 | > 50 | 4.65 | > 50 | > 50 | > 40
2 | CN(C)CC(C)(C)CNc1nn2c(-c3ccccc3)nnc2cc1C1CCC1 [Compound 1, N′-(7-Cyclobutyl-3-phenyl-[1,2,4]triazolo[4,3-b]pyridazin-6-yl)-2,2,N,N-tetramethyl-propane-1,3-diamine] | > 40 | > 50 | 1.4 | > 50 | > 50 | > 40
3 | CN(C)CC(C)(C)CNc1nn2c(-c3cc(F)cc(F)c3)nnc2cc1C1CCC1 [Compound 2, N′-(7-Cyclobutyl-3-(3,5-difluoro-phenyl)-[1,2,4]triazolo[4,3-b]pyridazin-6-yl)-2,2,N,N-tetramethyl-propane-1,3-diamine] | > 40 | > 50 | 0.42 | > 50 | > 50 | > 40
4 | CN(C)CC(C)(C)CNc1nn2c(-c3ccc(F)c(F)c3)nnc2cc1C1CCC1 [Compound 3, N′-(7-Cyclobutyl-3-(3,4-difluoro-phenyl)-[1,2,4]triazolo[4,3-b]pyridazin-6-yl)-2,2,N,N-tetramethyl-propane-1,3-diamine] | > 40 | > 50 | 0.91 | > 50 | > 50 | > 40
5 | CN(C)CC(C)(C)CNc1nn2c(-c3ccc(F)cc3)nnc2cc1C1CCC1 [Compound 4, N′-(7-Cyclobutyl-3-(4-fluoro-phenyl)-[1,2,4]triazolo[4,3-b]pyridazin-6-yl)-2,2,N,N-tetramethyl-propane-1,3-diamine] | > 40 | > 50 | 2.03 | > 50 | > 50 | > 40
6 | CN(C)CC(C)(C)CNc1nn2c(-c3cccc(F)c3)nnc2cc1C1CCC1 [Compound 5, N′-(7-Cyclobutyl-3-(3-fluoro-phenyl)-[1,2,4]triazolo[4,3-b]pyridazin-6-yl)-2,2,N,N-tetramethyl-propane-1,3-diamine] | > 40 | > 50 | 0.4 | > 50 | > 50 | > 40
7 | OCCOc1nn2c(-c3ccccc3)nnc2cc1-c1ccccc1 [Compound 8, 6-(2-Hydroxyethyl)oxy-3 7-diphenyl-[1,2,4]triazolo[4,3-b]pyridazine] | > 40 | – | 15.9 | – | – | > 40

Now from value to compound, other results behind:

Row | IC50 (PKA catalytic subunit) [µM] | IC50 (delta PH-Akt1) [µM] | IC50 (active human Akt1) [µM] | IC50 (Akt2) [µM] | IC50 (Akt3) [µM] | Compound | IC50 (PKC (mix of isoforms)) [µM]
8 | > 40 | > 50 | 10.5 | > 50 | > 50 | CN(C)CC(C)(C)CNc1nn2c(-c3ccccc3)nnc2c2ccccc12 [Compound 6, 2,2,N,N-tetramethyl-N-(3-phenyl-[1,2,4]triazolo[3,4-a]phthalazin-6-yl)-propane-1,3-diamine] | > 40
9 | > 40 | > 50 | 3.88 | > 50 | > 50 | COc1ccc(-c2nnc3c4ccccc4c(NCC(C)(C)CN(C)C)nn23)cc1 [Compound 7, N′-[3-(4-Methoxy-phenyl)-[1,2,4]triazolo[4,3-a]phthalazin-6-yl)-2,2,N,N-tetramethyl-propane-1,3-diamine] | > 40
10 | > 80 | > 50 | 6.1 | 45 | > 100 | Nc1ccc(-c2nc3ccccc3nc2-c2ccc(N)cc2)cc1 [Compound 11, 2,3-bis(4-aminophenyl)-quinoxaline] | > 80
